Test results from a melting point compilation (Tetko et al.; mined from patent text by program, amines drawn as free bases though some values may be those of a salt).

SMILES | melting point
CC(=O)OC1C(CO)OC(NC(=O)N(CCCl)N=O)C(OC(C)=O)C1OC(C)=O (centres undefined) | 143 to 144 °C
N#Cc1sc2ncccc2c1Cl | 144 to 145 °C
N#CC1CCc2ccc([N+](=O)[O-])cc2C(=O)C1 (centres undefined) | 107 °C
CCOC(=O)c1ccc(NC(=O)C(COS(C)(=O)=O)NS(=O)(=O)c2ccc(Cl)cc2)cc1 (racemic) | 153 to 158 °C
O=C(O)c1ccc2cc(-c3cc4c(c(C56CC7CC(CC(C7)C5)C6)c3)OCO4)ccc2c1 | 300 to 305 °C
O=C(O)c1ccc(C(=O)NOCc2ccc3ccccc3c2)cc1 | 241 to 243 °C
CC(C)C(=O)NC[C@@H]1CN2C(=O)C[C@H]2O1 (racemic) | 76 to 77 °C
CNCCOc1ccc2ccc(NC(=O)c3ccc(OC)cc3)nc2n1 | 146 °C
CCc1nc(/C=C/c2cn(-c3ccccc3)nc2OCc2ccc(OCc3nc(-c4cccc(C(=O)O)c4)oc3C)c(OC)c2)cs1 | 190 to 191 °C
CCOC(=O)c1cc(-n2c(=O)c3c(n(C)c2=O)CCC3)ccc1Cl | 141 to 143 °C
Cc1ccsc1C(Cc1ccccc1O)N(C)C=O (centres undefined) | 142 to 144 °C
CC(C)C[C@@H](C(=O)O)N1C(=O)[C@@H](N2C(=O)OC[C@@H]2c2ccccc2)[C@H]1CCc1ccccc1 | 138 to 140 °C
CN1CCN(c2nccc(Oc3ccc(NC(=O)c4cc(F)cc(N5CCCCC5)c4)c4ccccc34)n2)CC1 | 182 to 184 °C
CS(=O)(=O)NCCCCn1c(CCCOc2ccccc2)nc2c(N)nc3ccccc3c21 | 156 to 157 °C
O=c1cc(-c2ccncc2)nc2n1CC(F)(F)CN2 | 239 to 240 °C
C/C=C/[C@H](O)C[C@]1(C)CCc2c(C)c(OCc3ccccc3)c(C)c(C)c2O1 | 68 to 70 °C
COc1cc(CCNc2ncnc3c(F)ccc(F)c23)ccc1Oc1ccc(C(F)(F)F)cn1 | 119 to 121 °C
NC(=O)Cc1cccc2c(=O)cc(C3=CCCCC3)oc12 | 244 to 245 °C
O=C1OC(CCOc2cccc3ccccc23)C(O)=C1O (centres undefined) | 163 to 164 °C
CN(C)CC(=O)N1CCN(Cc2ccc3c(c2)Cc2c(-c4cccs4)n[nH]c2-3)CC1 | 193 to 197 °C
O=C(O)CNC(=O)CSC(=O)c1ccccc1 | 140 to 142 °C
O=C(NCc1ccc(F)cc1)c1ccnc(N2CCN(Cc3ccc(F)c(F)c3)C2=O)c1 | 165 to 167 °C
CC(C)(C)c1ccc(C(=O)Nc2cc(OCCCO/N=C/c3cn(Cc4ccccc4)c4ccccc34)ccc2C(=O)O)cc1 | 181 to 182 °C
CC12CCC(=O)C=C1CCC1C2C(O)CC2(C)C1CCC2(O)C(=O)COC(=O)CC(CC(=O)O)c1ccc(O)cc1 (centres undefined) | 98 to 110 °C
CC1(C)CC(c2ccccc2)Nc2c(C(=O)O)cnn21 (single isomer, unassigned; (-)) | 205 to 206 °C

SMILES | melting point
COc1nsc(OCCC#CI)c1C#N | 71 to 73 °C
C=C(c1cc(F)ccc1OCCCC)n1ccnc1 | 107 to 109 °C
CCc1nn(CCN)c(CO)c1Oc1cc(Cl)cc(Cl)c1 | 105 to 107 °C
C=C(CC(=O)Nc1cc(Cl)cc(Cl)c1)C(=O)O | 185 °C
CCCCCCC(=N)NC(=S)Nc1ccc(SC)cc1 | 100 to 101 °C
c1cc(CCCn2ccnc2)cc(OCc2coc(-c3cccs3)n2)c1 | 112 to 113 °C
CCOC(=O)C(=O)Nc1nc(C)cs1 | 171 to 173 °C
O=C([C@@H]1CCCN1S(=O)(=O)c1ccc2ccccc2c1)N1C[C@H](c2ccc(Cl)cc2)Sc2ccc3ccccc3c21 | 204 to 205 °C
[N-]=[N+]=Nc1cc(N)cc(I)c1 | 89 to 91 °C
Cc1ccc(S(=O)(=O)OCC2Cc3cc(Cl)cc(-c4cccc(Cl)c4)c3O2)cc1 (centres undefined) | 80 to 82 °C
O=C(NCCN1CCCC1)c1ccc(-c2cnc3c(c2)N(Cc2c(Cl)cccc2Cl)C(=O)CN3)cc1 | > 200 °C
CCOC(=O)C1=C(COCCN=[N+]=[N-])NC(C)=C(C(=O)OC)C1c1cccc(C(F)(F)F)c1Cl (centres undefined) | 143 to 145 °C
CCCc1c(C(=O)C2CC2)c2ccc(C(N)=O)cc2n1Cc1cc2c(cc1Cl)OCO2 | 162 to 164 °C
CNc1cc(C)cc([N+](=O)[O-])c1N | 113 °C
COCCCOc1ccc(/C=C/C(=O)O)c(Oc2ncc(C(F)(F)F)cc2Cl)c1 | 131 to 133 °C
CNC(=O)Nc1ccc2c(c1)C(=O)C1(CC1)O2 | 196 to 204 °C
O=C(Nc1ccc2nc(CN3CCOCC3)ccc2c1)c1ccc(-c2ccccc2)cc1 | 214 to 215 °C
CC1(C)Oc2ccc(Br)cc2C(Oc2ccnc(O)c2)C1(C)O (centres undefined) | 251 to 252 °C
CC(=O)c1ccc2c(c1)C(C)(C)C(O)CC2(C)C (centres undefined) | 121 to 124 °C
CCCCCCCCOc1ccc(C(=O)Oc2ccc(C(=O)O)c(F)c2)cc1 | 147 to 148 °C
CC(=O)Nc1nc(CCCCl)cs1 | 110 to 112 °C
CC(C)n1cnc2c(N[C@H](CO)c3ccccc3)nc(Cl)nc21 | 150 to 152 °C
CCOCCCc1ccc(Oc2ccc3c(c2)C=C(C(=O)OC)CCS3(=O)=O)cc1 | 93 to 94 °C
Cc1cc(C(C)(C)C)c(O)c(C)c1COC(=O)c1ccc(C(=O)OCc2c(C)cc(C(C)(C)C)c(O)c2C)cc1 | 227 to 230 °C
CSc1oc2ccc(Br)cc2c(=O)c1-c1ccc(Cl)cc1 | 205 to 206 °C

SMILES | melting point
COC(=O)c1cc(C(=O)N2COCC2(C)C)c2cc(Cc3ccc(F)cc3)cnc2c1O | 149 to 150 °C
COc1cc(C(=O)O)cc(OC)c1N(C)C | 65 to 69 °C
CNC(=S)C1(c2cccnc2)CCCCC1=CCO (centres undefined) | 172 to 173 °C
COc1ccc(CCNC(=O)C(F)(F)F)cc1S(=O)(=O)N=CN(C)C | 143 to 144 °C
CC(=O)OC1CSC(Oc2cncc(-c3ccc(C(F)(F)F)cc3)c2)C(OC(C)=O)C1OC(C)=O (centres undefined) | 163 to 164 °C
N#CSc1ccc(N)c(C(F)(F)F)c1 | 52 to 55 °C
COc1cc(-c2ccc(N3CCCN(c4ccc(-c5cc(OC)c(O)c(OC)c5)cn4)CC3)nc2)cc(OC)c1O | 200 to 202 °C
COC(=O)C1CCCc2c(noc2-c2ccc(Cl)cc2)C1 (centres undefined) | 94 to 95 °C
O=C1CNC(=O)C(=Cc2cc3ccccc3s2)N1 | 258 °C
Cc1cc2c(c3c1NC(=O)CC3)O[C@@H](CN)[C@H]2C (racemic) | > 300 °C
CC12CCC3c4ccc(N)cc4CCC3C1CCC2O (centres undefined) | 75 to 77 °C
Cc1c(S(=O)(=O)C(F)(F)F)cnn1-c1c(Cl)cc(C(F)(F)F)cc1Cl | 83 to 85 °C
CCCCc1oc2ccc(NS(C)(=O)=O)cc2c1C(=O)c1ccc(OCCN(CCCC)CCCC)cc1 | 86 °C
CSc1ccc(CN(C)CCCCc2ccc(NC(=O)c3cccc4c(=O)c5ccccc5[nH]c34)cc2)cc1 | 135 °C
Cc1csc(-c2sc(Br)cc2-c2ccc(F)cc2)c1 | 113 to 116 °C
N#CC1(c2ccc(F)cc2)CCC(N2CCN(c3cccnn3)CC2)CC1 (centres undefined) | 189 °C
CCCCCCC(CCC(=O)OC)n1cnc(NC(=O)c2ccccc2C(=O)O)c1 (centres undefined) | 135 to 136 °C
CC(C)Cn1c(CNC(=O)OC(C)(C)C)c(-c2ccccc2)c2cc(CO)ccc2c1=O | 169 to 170 °C
CCC(=O)N(CC)c1cccc(-c2ccnc3c(C(=O)c4ccccc4)cnn23)c1 | 194 to 195 °C
CN1C(=O)CN(C(=O)CNC(=O)OCc2ccccc2)C(c2ccccc2)c2cc(Cl)ccc21 (centres undefined) | 158 to 160 °C
CNC(=O)OCCN1C(=O)c2ccccc2C1=O | 142 to 145 °C
COCC1(CCCCCCCCCCCCC2(C(=O)O)CC2)CC1 | 36.4 to 37.6 °C
O=S1(=O)c2ccccc2N(c2ccc(OCc3ccccc3)cc2)c2ccccc21 | 203 to 208 °C
BrCC1(CBr)COC(c2ccccc2)OC1 | 66 °C
CN1c2cscc2C(=O)N(CCN2CCCCC2)c2ccccc21 | 84 to 88 °C

SMILES | melting point
COC(=O)C1=C(C)NC(C)=C(C(=O)OCCN)C1c1cccc2c(=O)c(C)c(-c3ccccc3)oc12 (centres undefined) | 188 to 192 °C
Cc1cc(C(=O)O)n(-c2ncc(Cl)cc2Cl)n1 | 227 to 228 °C
CC(=O)SCC12CCC3(CC1=CCC1C2CCC2(C)C(C(C)=O)CCC12)OCCO3 (centres undefined) | 151 to 153 °C
CCOC(=O)c1cnc(SC)nc1NC(C)C | 159 to 160 °C
Nc1n[nH]c2cc(C(F)(F)F)ccc12 | 168 to 169 °C
CCOc1c(OC)cccc1-c1nc2ccc(C(=O)Cl)cc2c(=O)[nH]1 | 93 to 94 °C
Cc1ccc(C(=O)c2cc(-c3ccncc3)c(N3CCOCC3)s2)cc1 | 144 to 145 °C
COc1ccccc1N1CCN(Cc2c[nH]c3ccccc23)CC1 | 188 to 190 °C
CC(C)c1nc(CN)n(C)c1Sc1cccc(Cl)c1 | 99 to 101 °C
Cc1cc(-c2cccc([N+](=O)[O-])c2)c2ccccc2n1 | 157 °C
O=C1c2ccc(Nc3ccc(F)cc3F)cc2CCc2c(OC[C@H](O)CO)cccc21 | 125 °C
O=C1c2nc3ccccn3c2C(=O)c2cccc(F)c21 | > 260 °C
Cc1c(CC(=O)OCCO)cc(-c2ccc(S(C)(=O)=O)cc2)n1-c1ccc(F)cc1 | 129 to 131 °C
COC(=O)CCC(=O)c1cc(NC(C)=O)ccc1OCC1CO1 (centres undefined) | 84 to 87 °C
Cc1ccc(C(C#N)=C2CCCCC2)cc1 | 50.5 to 51.3 °C
CCOC(=S)c1csc2nc(Cc3ccccc3)cn12 | 83 to 84 °C
CC1CCCN1CCCN1C(=C(C#N)C#N)N(CCCN2CCCC2C)c2ccccc21 (centres undefined) | 83 to 85 °C
Cc1c(Cl)cccc1Nc1ncccc1C(=O)OC1OC(=O)c2ccccc21 (centres undefined) | 178 to 180 °C
CCOC(=O)c1cnn(C)c1NC(=O)Nc1ccccc1 | 151 to 153 °C
O=C1c2cc(F)cc(F)c2-n2c1nc1ccccc1c2=O | 287 to 290 °C
CC(C)C[C@H](NS(=O)(=O)c1cccnc1)C(=O)N[C@@H](C(C)C)[C@@H](O)c1c(-c2ccccc2)c1=O | 110 to 112 °C
CC(C)c1[nH]c2ccccc2c1Sc1ccc(O)cc1 | 116 °C
COc1cc(NC(=O)C#Cc2ccc(C(F)(F)F)cc2Cl)ccc1OCCN1CCC(OC)CC1 | 195 to 197 °C
CC(C)n1nc(-c2cc(C(=O)N3CCOCC3)cnc2-c2ccccc2)ccc1=O | 132 to 133 °C
